Patent publication US4272437A, “Antibacterial agents, and 4-thio azetidinone intermediates” (priority 1979, dated 1981)
≈ marks a conversion by molar mass, not a printed value. Like-named read-outs stand apart in the source and are kept apart here.

Legend:
Str. faecalis A-20688 = experiment: MIC, tube dilution, Streptococcus faecalis A20688; format: cell-based; details: overnight 37° C.; for MIC: Enterococcus faecalis, A20688, Str. faecalis A20688, read-out: Minimum Inhibitory Concentration (M.I.C.)
From the text: (§1) Representative compounds of the present invention were subjected to in vitro antibiotic screening against a variety of microorganisms.

E. coli A-20341-1 = experiment: MIC, tube dilution, Escherichia coli A20341-1; format: cell-based
From the text: as §1

Str. pneumoniae A-9585 = experiment: MIC, tube dilution, Streptococcus pneumoniae A9585; format: cell-based; details: overnight 37° C., Nutrient Broth; for MIC: Streptococcus pneumoniae, A9585, Str. pneumoniae A9585, read-out: Minimum Inhibitory Concentration (M.I.C.)
From the text: as §1

[1] = test system: Staph. aureus (Meth-Res) A-15097; experiment: MIC, tube dilution, Staphylococcus aureus A15097 (Meth-Res); format: cell-based; details: overnight 37° C.; for MIC: Staphylococcus aureus
From the text: as §1

Pr. vulgaris A-9716 = experiment: MIC, tube dilution, Proteus vulgaris / Proteus mirabilis A9716; format: cell-based, Proteus vulgaris (name changed to Proteus mirabilis); details: overnight 37° C.; for MIC: Proteus vulgaris
From the text: as §1

Str. pyogenes A-9604 = experiment: MIC, tube dilution, Streptococcus pyogenes A9604; format: cell-based; details: overnight 37° C., Nutrient Broth; for MIC: Streptococcus pyogenes, A9604, Str. pyogenes A9604, read-out: Minimum Inhibitory Concentration (M.I.C.)
From the text: as §1

Pr. mirabilis A-9900 = experiment: MIC, tube dilution, Proteus mirabilis A9900; format: cell-based; details: overnight 37° C.; for MIC: Proteus mirabilis, A9900, Proteus mirabilis A9900, read-out: Minimum Inhibitory Concentration (M.I.C.)
From the text: as §1

Ent. cloacae A-9656 = experiment: MIC, tube dilution, Enterobacter cloacae A9656; format: cell-based; details: overnight 37° C.; for MIC: read-out: Minimum Inhibitory Concentration (M.I.C.)
From the text: as §1

K. pneumoniae A-15130 = experiment: MIC, tube dilution, Klebsiella pneumoniae A15130; format: cell-based; details: overnight 37° C.; for MIC: Klebsiella pneumoniae, A15130, K. pneumoniae A15130, read-out: Minimum Inhibitory Concentration (M.I.C.)
From the text: as §1

[2] = test system: Staph. aureus (Pen-Res) A-9606; experiment: MIC, tube dilution, Staphylococcus aureus A9606 (Pen-Res); format: cell-based; details: overnight 37° C.; for MIC: Staphylococcus aureus
From the text: as §1

[3] = test system: Providencia stuartii A21205; experiment: MIC, tube dilution, Providencia stuartii (Pr. rettgeri) A21205; format: cell-based; details: for MIC: Providencia stuartii; for Minimum Inhibitory Concentration (M.I.C.): Providencia stuartii (Pr. rettgeri) A21205
From the text: as §1

Ps. aeruginosa A-21213 = experiment: MIC, tube dilution, Pseudomonas aeruginosa A21213; format: cell-based; details: Pseudomonas aeruginosa A21213, overnight 37° C.; for MIC: read-out: Minimum Inhibitory Concentration (M.I.C.)
From the text: as §1

Pr. morganii A-15153 = experiment: MIC, tube dilution, Proteus morganii A15153; format: cell-based; details: overnight 37° C.; for MIC: Morganella morganii, A15153, Proteus morganii A15153, read-out: Minimum Inhibitory Concentration (M.I.C.)
From the text: as §1

Staph. aureus A-9537 = experiment: MIC, tube dilution, Staphylococcus aureus A9537; format: cell-based; details: overnight 37° C., Nutrient Broth; for MIC: Staphylococcus aureus, A9537, Staph. aureus A9537, read-out: Minimum Inhibitory Concentration (M.I.C.)
From the text: as §1

[4] = test system: Staph. aureus A-9537 and 50% serum; experiment: MIC, tube dilution, Staph. aureus A9537 + 50% serum; format: cell-based, Staphylococcus aureus; details: overnight 37° C.; for MIC: Staphylococcus aureus, read-out: Minimum Inhibitory Concentration (M.I.C.)
From the text: as §1

Ser. marcescens A-20019 = experiment: MIC, tube dilution, Serratia marcescens A20019; format: cell-based; details: overnight 37° C.; for MIC: Serratia marcescens, A20019, Serratia marcescens A20019, read-out: Minimum Inhibitory Concentration (M.I.C.); for Minimum Inhibitory Concentration (M.I.C.): Serratia marcescens A20019
From the text: as §1

Ps. aeruginosa A-9843A = experiment: MIC, tube dilution, Pseudomonas aeruginosa A9843A; format: cell-based; details: overnight 37° C.; for MIC: Pseudomonas aeruginosa, A9843A, read-out: Minimum Inhibitory Concentration (M.I.C.), Pseudomonas aeruginosa A9843A
From the text: as §1

Ent. cloacae A-9659 = experiment: MIC, tube dilution, Enterobacter cloacae A9659; format: cell-based; details: overnight 37° C.; for MIC: Enterobacter cloacae, A9659, Enterobacter cloacae A9659, read-out: Minimum Inhibitory Concentration (M.I.C.); for Minimum Inhibitory Concentration (M.I.C.): Enterobacter cloacae A9659
From the text: as §1

[5] = test system: Klebsiella species A20468; experiment: MIC, tube dilution, Klebsiella species A20468; format: cell-based; details: Klebsiella species (K. pneumoniae) A20468, overnight 37° C.; for MIC: read-out: Minimum Inhibitory Concentration (M.I.C.)
From the text: as §1

E. coli A-15119 = experiment: MIC, tube dilution, Escherichia coli A15119; format: cell-based; details: overnight 37° C.; for MIC: Escherichia coli, A15119, E. coli A15119, read-out: Minimum Inhibitory Concentration (M.I.C.)
From the text: as §1

[6] = A9716, Proteus vulgaris / Proteus mirabilis A9716, read-out: Minimum Inhibitory Concentration (M.I.C.)
[7] = Enterobacter cloacae, A9656, Enterobacter cloacae A9656
[8] = Staph. aureus A9606 (Pen-Res), read-out: Minimum Inhibitory Concentration (M.I.C.)
[9] = A21205, Providencia stuartii (Pr. rettgeri) A21205, overnight 37° C., read-out: Minimum Inhibitory Concentration (M.I.C.)
[10] = Staph. aureus A15097 (Meth-Res)
[11] = Escherichia coli, A203411; E. coli A20341-1; overnight 37° C.; read-out: Minimum Inhibitory Concentration (M.I.C.)

| Structure (SMILES) | MIC (Str. faecalis A-20688) | MIC (Str. pneumoniae A-9585) | MIC (Pr. vulgaris A-9716; [6]) | MIC (Str. pyogenes A-9604) | MIC (Pr. mirabilis A-9900) | MIC (Ent. cloacae A-9656; [7]) | MIC (K. pneumoniae A-15130) | MIC [2, 8] | MIC [3, 9] | MIC (Ps. aeruginosa A-21213) | MIC (Pr. morganii A-15153) | MIC (Staph. aureus A-9537) | MIC [4] | MIC (Ser. marcescens A-20019) | MIC (Ps. aeruginosa A-9843A) | MIC (Ent. cloacae A-9659) | MIC [5] | MIC (E. coli A-15119) | Minimum Inhibitory Concentration (M.I.C.) [1, 10] | Minimum Inhibitory Concentration (M.I.C.) ([3]; overnight 37° C.) | also measured |
| --- | --- | --- | --- | --- | --- | --- | --- | --- | --- | --- | --- | --- | --- | --- | --- | --- | --- | --- | --- | --- | --- |
| O=C(O)CCC1=C(C(=O)O)N2C(=O)CC2S1 (stereo not drawn) [Preparation 11, Disodium 2-(2-carboxyethyl)penem-3-carboxylate] | 125 µg/mL | 0.13 µg/mL | 4 µg/mL | 4 µg/mL | 4 µg/mL | 63 µg/mL | 63 µg/mL | 32 µg/mL | 1 µg/mL | > 125 µg/mL | 63 µg/mL | 16 µg/mL | > 63 µg/mL | 4 µg/mL | > 125 µg/mL | 63 µg/mL | > 125 µg/mL | 16 µg/mL |  |  | MIC (E. coli A-20341-1; Escherichia coli, A203411, E. coli A20341-1; overnight 37° C.; read-out: Minimum Inhibitory Concentration (M.I.C.)): 63 µg/mL; MIC ([1]; Staph. aureus A15097 (Meth-Res), read-out: Minimum Inhibitory Concentration (M.I.C.)): 63 µg/mL |
| O=C(O)C1=C(COc2ccccc2)S[C@@H]2CC(=O)N12 [Example 11, 2-Phenoxymethylpenem-3-carboxylic Acid] |  |  |  |  |  |  |  |  |  |  |  |  |  |  |  |  |  |  | 1 µg/mL | 63 µg/mL | Minimum Inhibitory Concentration (M.I.C.) (Str. faecalis A-20688; Str. faecalis A20688): 63 µg/mL; Minimum Inhibitory Concentration (M.I.C.) (E. coli A-20341-1; E. coli A20341-1; overnight 37° C.): > 125 µg/mL; Minimum Inhibitory Concentration (M.I.C.) (Str. pneumoniae A-9585; Str. pneumoniae A9585): .5 µg/mL; Minimum Inhibitory Concentration (M.I.C.) (Pr. vulgaris A-9716; Proteus vulgaris / Proteus mirabilis A9716): 16 µg/mL; Minimum Inhibitory Concentration (M.I.C.) (Str. pyogenes A-9604; Str. pyogenes A9604): .5 µg/mL; Minimum Inhibitory Concentration (M.I.C.) (Pr. mirabilis A-9900; Proteus mirabilis A9900): 16 µg/mL; Minimum Inhibitory Concentration (M.I.C.) (Ent. cloacae A-9656; Enterobacter cloacae A9656): > 125 µg/mL; Minimum Inhibitory Concentration (M.I.C.) (K. pneumoniae A-15130; K. pneumoniae A15130): > 125 µg/mL; Minimum Inhibitory Concentration (M.I.C.) ([2]; Staph. aureus A9606 (Pen-Res)): .5 µg/mL; Minimum Inhibitory Concentration (M.I.C.) (Ps. aeruginosa A-21213): > 125 µg/mL; Minimum Inhibitory Concentration (M.I.C.) (Pr. morganii A-15153; Proteus morganii A15153): 16 µg/mL; Minimum Inhibitory Concentration (M.I.C.) (Staph. aureus A-9537; Staph. aureus A9537): 1 µg/mL; Minimum Inhibitory Concentration (M.I.C.) [4]: 63 µg/mL; Minimum Inhibitory Concentration (M.I.C.) (Ser. marcescens A-20019): > 125 µg/mL; Minimum Inhibitory Concentration (M.I.C.) (Ps. aeruginosa A-9843A; Pseudomonas aeruginosa A9843A): > 125 µg/mL; Minimum Inhibitory Concentration (M.I.C.) (Ent. cloacae A-9659): > 125 µg/mL; Minimum Inhibitory Concentration (M.I.C.) [5]: > 125 µg/mL; Minimum Inhibitory Concentration (M.I.C.) (E. coli A-15119; E. coli A15119): 63 µg/mL |
| CCCC1=C(C(=O)O)N2C(=O)C[C@H]2S1 [Preparation 15, 2-Propylpenem-3-carboxylic Acid] | 63 µg/mL (≈ 295 µM) | 1 µg/mL (≈ 4.69 µM) | 16 µg/mL (≈ 75 µM) | 8 µg/mL (≈ 37.5 µM) | 16 µg/mL (≈ 75 µM) | 63 µg/mL (≈ 295 µM) | > 125 µg/mL | 16 µg/mL (≈ 75 µM) | 16 µg/mL (≈ 75 µM) | > 125 µg/mL | 63 µg/mL (≈ 295 µM) | 1 µg/mL (≈ 4.69 µM) | > 63 µg/mL | 63 µg/mL (≈ 295 µM) | > 125 µg/mL | > 125 µg/mL | > 125 µg/mL | 16 µg/mL (≈ 75 µM) |  | 32 µg/mL | MIC (E. coli A-20341-1; [11]): > 125 µg/mL; MIC ([1]; read-out: Minimum Inhibitory Concentration (M.I.C.), Staph. aureus A15097 (Meth-Res)): 125 µg/mL (≈ 586 µM); MIC (Ent. cloacae A-9656; Enterobacter cloacae A9656): 125 µg/mL (≈ 586 µM); Minimum Inhibitory Concentration (M.I.C.) (Ser. marcescens A-20019): 125 µg/mL; Minimum Inhibitory Concentration (M.I.C.) (Ent. cloacae A-9659): 125 µg/mL |
| CCC1C(=O)N2C(C(=O)[O-])=C(C)S[C@H]12.[Na+] (stereo partly drawn) [1 (cis), Sodium 6-Ethyl-2-methylpenem-3-carboxylate] | 63 µg/mL | 4 µg/mL |  | 4 µg/mL | 125 µg/mL |  | > 125 µg/mL |  |  | > 125 µg/mL | > 125 µg/mL | 8 µg/mL | > 63 µg/mL | > 125 µg/mL | > 125 µg/mL | > 125 µg/mL | > 125 µg/mL | 125 µg/mL | 63 µg/mL |  | MIC (E. coli A-20341-1; [11]): 125 µg/mL; MIC (Pr. vulgaris A-9716; A9716, read-out: Minimum Inhibitory Concentration (M.I.C.), Proteus vulgaris / Proteus mirabilis A9716): 63 µg/mL; MIC (Ent. cloacae A-9656; Enterobacter cloacae A9656): > 125 µg/mL; MIC ([2]; read-out: Minimum Inhibitory Concentration (M.I.C.), Staph. aureus A9606 (Pen-Res)): 16 µg/mL; MIC ([3]; A21205, read-out: Minimum Inhibitory Concentration (M.I.C.)): 63 µg/mL |
